Reference: patent publication US20260262643A1, “HERBICIDAL BENZOXAZINES” (FMC CORPORATION, priority 2022, published 2026)

Experiments:
barnyardgrass [1] = assay: Test C preemergence; type: in vivo, Echinochloa crusgalli
Summary of the method: (§1)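 Seeds sown in loam soil–sand blend received a directed preemergence soil spray of test chemical in non-phytotoxic solvent with surfactant; postemergence plants (2–10 cm, one- to two-leaf stage) were sprayed with the same formulation. Greenhouse-held 10 days, then visually rated for injury versus untreated controls, 0 (no effect) to 100 (complete control).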

blackgrass [2] = assay: Test C preemergence; type: in vivo, Alopecurus myosuroides
Summary of the method: as §1

corn [3] = assay: Test C preemergence; type: in vivo, Zea mays
Summary of the method: as §1

green foxtail [4] = assay: Test C preemergence; type: in vivo, Setaria viridis
Summary of the method: as §1

kochia [5] = assay: Test C preemergence; type: in vivo, Bassia scoparia
Summary of the method: as §1

oat, wild [6] = assay: Test C preemergence; type: in vivo, Avena fatua
Summary of the method: as §1

pigweed, palmer [7] = assay: Test C preemergence; type: in vivo, Amaranthus palmeri
Summary of the method: as §1

ragweed [8] = assay: Test C preemergence; type: in vivo, Ambrosia artemisiifolia
Summary of the method: as §1

ryegrass, Italian [9] = assay: Test C preemergence; type: in vivo, Lolium multiflorum
Summary of the method: as §1

soybean [10] = assay: Test C preemergence; type: in vivo, Glycine max
Summary of the method: as §1

wheat [11] = assay: Test C preemergence; type: in vivo, Triticum aestivum
Summary of the method: as §1

barnyardgrass [12] = assay: Test C postemergence; type: in vivo, Echinochloa crusgalli; conditions: 10 days, 0 to 100 scale (0 no effect, 100 complete control)
Summary of the method: as §1

blackgrass [13] = assay: Test C postemergence; type: in vivo, Alopecurus myosuroides; conditions: 10 days, 0 to 100 scale (0 no effect, 100 complete control)
Summary of the method: as §1

corn [14] = assay: Test C postemergence; type: in vivo, Zea mays; conditions: 10 days, 0 to 100 scale (0 no effect, 100 complete control)
Summary of the method: as §1

green foxtail [15] = assay: Test C postemergence; type: in vivo, Setaria viridis; conditions: 10 days, 0 to 100 scale (0 no effect, 100 complete control)
Summary of the method: as §1

kochia [16] = assay: Test C postemergence; type: in vivo, Bassia scoparia; conditions: 10 days, 0 to 100 scale (0 no effect, 100 complete control)
Summary of the method: as §1

oat, wild [17] = assay: Test C postemergence; type: in vivo, Avena fatua; conditions: 10 days, 0 to 100 scale (0 no effect, 100 complete control)
Summary of the method: as §1

pigweed, palmer [18] = assay: Test C postemergence; type: in vivo, Amaranthus palmeri; conditions: 10 days, 0 to 100 scale (0 no effect, 100 complete control)
Summary of the method: as §1

ragweed [19] = assay: Test C postemergence; type: in vivo, Ambrosia artemisiifolia; conditions: Postemergence, 125 g ai/ha; 0 to 100 scale (0 no effect, 100 complete control), 10 days
Summary of the method: as §1

ryegrass, Italian [20] = assay: Test C postemergence; type: in vivo, Lolium multiflorum; conditions: Postemergence, 125 g ai/ha; 0 to 100 scale (0 no effect, 100 complete control), 10 days
Summary of the method: as §1

soybean [21] = assay: Test C postemergence; type: in vivo, Glycine max; conditions: Postemergence, 125 g ai/ha; 0 to 100 scale (0 no effect, 100 complete control), 10 days
Summary of the method: as §1

wheat [22] = assay: Test C postemergence; type: in vivo, Triticum aestivum; conditions: Postemergence, 125 g ai/ha; 0 to 100 scale (0 no effect, 100 complete control), 10 days
Summary of the method: as §1

galium = assay: Test C postemergence; type: in vivo, Galium aparine; conditions: 10 days, 0 to 100 scale (0 no effect, 100 complete control)
Summary of the method: as §1

horseweed = assay: Test C postemergence; type: in vivo, Erigeron canadensis; conditions: 10 days, 0 to 100 scale (0 no effect, 100 complete control)
Summary of the method: as §1

barnyardgrass [23] = assay: Test D flooded paddy test; type: in vivo, Echinochloa crus-galli; conditions: 250 g ai/ha, applied to paddy water, visual rating after 13 to 14 days, scale 0 to 100 (0 no effect, 100 complete control)
Summary of the method: (§2)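 2-leaf plants; flood 3 cm above soil; compound dosed into paddy water; greenhouse 13–14 d; visual rating vs controls, 0–100 (100 = complete control); dash = not tested.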

ducksalad = assay: Test D flooded paddy test; type: in vivo, Heteranthera limosa; conditions: 250 g ai/ha, applied to paddy water, visual rating after 13 to 14 days, scale 0 to 100 (0 no effect, 100 complete control)
Summary of the method: as §2

rice = assay: Test D flooded paddy test; type: in vivo, Oryza sativa; conditions: 250 g ai/ha, applied to paddy water, visual rating after 13 to 14 days, scale 0 to 100 (0 no effect, 100 complete control)
Summary of the method: as §2

sedge, umbrella = assay: Test D flooded paddy test; type: in vivo, Cyperus difformis; conditions: 250 g ai/ha, applied to paddy water, visual rating after 13 to 14 days, scale 0 to 100 (0 no effect, 100 complete control)
Summary of the method: as §2

[24] = 500 g ai/ha, preemergence, 0 to 100 scale (0 no effect, 100 complete control)
[25] = Preemergence, 125 g ai/ha, 0 to 100 scale, 0 no effect, 100 complete control

COC[C@H]1CN(C(=O)c2cc(-n3cnc(C(C)C)n3)cc3c2OCCO3)c2cccc(Cl)c2O1 [Compound 395]
Barnyardgrass plant response rating (barnyardgrass [1]; [24]): 100 | Plant response rating, Barnyardgrass (barnyardgrass [1]; [25]): 80 | Blackgrass plant response rating (blackgrass [2]; [24]): 90 | Plant response rating, Blackgrass (blackgrass [2]; [25]): 50 | Corn plant response rating (corn [3]; [24]): 50 | Plant response rating, Corn (corn [3]; [25]): 30 | Foxtail, Green plant response rating (green foxtail [4]; [24]): 100 | Plant response rating, Foxtail, Green (green foxtail [4]; [25]): 100 | Kochia plant response rating (kochia [5]; [24]): 100 | Plant response rating, Kochia (kochia [5]; [25]): 100 | Oat, Wild plant response rating (oat, wild [6]; [24]): 90 | Plant response rating, Oat, Wild (oat, wild [6]; [25]): 50 | Pigweed, Palmer plant response rating (pigweed, palmer [7]; [24]): 100 | Plant response rating, Pigweed, Palmer (pigweed, palmer [7]; [25]): 100 | Ragweed plant response rating (ragweed [8]; [24]): 90 | Plant response rating, Ragweed (ragweed [8]; [25]): 90 | Ryegrass, Italian plant response rating (ryegrass, Italian [9]; [24]): 90 | Plant response rating, Ryegrass, Italian (ryegrass, Italian [9]; [25]): 80 | Soybean plant response rating (soybean [10]; [24]): 100 | Plant response rating, Soybean (soybean [10]; [25]): 70 | Wheat plant response rating (wheat [11]; [24]): 80 | Plant response rating, Wheat (wheat [11]; [25]): 30 | Plant response rating, Barnyardgrass (barnyardgrass [12]; 500 g ai/ha, postemergence): 70 | Plant response rating, Barnyardgrass (barnyardgrass [12]; Postemergence, 125 g ai/ha): 40 | Plant response rating, Blackgrass (blackgrass [13]; 500 g ai/ha, postemergence): 90 | Plant response rating, Blackgrass (blackgrass [13]; Postemergence, 125 g ai/ha): 40 | Plant response rating, Corn (corn [14]; 500 g ai/ha, postemergence): 90 | Plant response rating, Corn (corn [14]; Postemergence, 125 g ai/ha): 70 | Plant response rating, Foxtail, Green (green foxtail [15]; 500 g ai/ha, postemergence): 80 | Plant response rating, Foxtail, Green (green foxtail [15]; Postemergence, 125 g ai/ha): 70 | Plant response rating, Kochia (kochia [16]; 500 g ai/ha, postemergence): 100 | Plant response rating, Kochia (kochia [16]; Postemergence, 125 g ai/ha): 90 | Plant response rating, Oat, Wild (oat, wild [17]; 500 g ai/ha, postemergence): 60 | Plant response rating, Oat, Wild (oat, wild [17]; Postemergence, 125 g ai/ha): 50 | Plant response rating, Pigweed, Palmer (pigweed, palmer [18]; 500 g ai/ha, postemergence): 100 | Plant response rating, Pigweed, Palmer (pigweed, palmer [18]; Postemergence, 125 g ai/ha): 90 | Plant response rating, Ragweed (ragweed [19]): 70 | Plant response rating, Ryegrass, Italian (ryegrass, Italian [20]): 60 | Plant response rating, Soybean (soybean [21]): 100 | Plant response rating, Wheat (wheat [22]): 40 | Plant response rating, Galium (galium; 500 g ai/ha, postemergence): 100 | Plant response rating, Galium (galium; Postemergence, 125 g ai/ha): 100 | Plant response rating, Horseweed (horseweed; 500 g ai/ha, postemergence): 60 | Plant response rating, Horseweed (horseweed; Postemergence, 125 g ai/ha): 50 | Plant response rating, Barnyardgrass (Flood) (barnyardgrass [23]): 0 | Plant response rating, Ducksalad (Flood) (ducksalad): 0 | Plant response rating, Rice (Flood) (rice): 0 | Plant response rating, Sedge, Umbrella (Flood) (sedge, umbrella): 0
